The values that follow are results of earlier work, collected in US6743953B2, “Process for the preparation of xanthophyll crystals” (Kancor Flavours & Extracts Ltd., priority 2002, dated 2004).

Read-outs that look alike come from different tables or passages of the source.

Assay in data set [1]: not given
The source holds these as a separate data set.

Turning to `CC1=C[C@H](O)CC(C)(C)[C@H]1/C=C/C(C)=C/C=C/C(C)=C/C=C/C=C(C)/C=C/C=C(C)/C=C/C1=C(C)C[C@@H](O)CC1(C)C` [Lutein, (3R,3′R,6′R)-β,ε-carotene-3,3′-diol], the “Solubility of Lutein in Solvent” value reads like this: (solvent Acetone) 800 Mg/litre; (solvent Benzene) 600 Mg/litre; (solvent Chloroform) 6000 Mg/litre; (solvent Cyclohexanone) 4000 Mg/litre; (solvent Dichloromethane) 800 Mg/litre; (solvent Ethyl Acetate) 800 Mg/litre. The “Solubility of Lutein in Solvent” value (solvent Hexane) is 20 Mg/litre, the “Solubility of Lutein in Solvent” value (solvent Tetrahydrofuran) is recorded as 8000 Mg/litre and the “Solubility of Lutein in Solvent” value (solvent Toluene) is given as 400 Mg/litre. Moreover, the “Stability of Lutein in Solvent” value is “Good” in data set [1] (solvent Acetone); “Good” in data set [1] (solvent Benzene); “Good” in data set [1] (solvent Chloroform); “Poor” in data set [1] (solvent Cyclohexanone); “Good” in data set [1] (solvent Dichloromethane); “Good” in data set [1] (solvent Ethyl Acetate). Besides, the “Stability of Lutein in Solvent” value in data set [1] (solvent Hexane), in data set [1] (solvent Tetrahydrofuran) and in data set [1] (solvent Toluene) was “Good” in each case.
